Measured values published in PubChem BioAssay AID1963975 (Molecular Pharmacology Branch, DTP, NCI, 2024).
Each block holds one molecule with its values, some of them ahead of it.

System: 624824-186-R-J2-PDC multicell spheroids, viability
Test: Anticancer human tumor 624824-186-R-J2-PDC patient-derived colon adenocarcinoma cell line growth inhibition [PI3K]
Conditions: for viability, T/C: stronger effect = lower value
Procedure, shortened: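 Spheroid viability read-out. Co-cultures contained the tumor line plus HUVEC and human MSCs. Each agent was paired with a PI3K inhibitor (inavolisib, alpelisib, duvelisib, copanlisib) across half-log dilutions starting at clinical Cmax, or at 10 microM when Cmax was unknown.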

[1] = curve of first compound, second compound 0.0316 µM
[2] = curve of first compound, second compound 0.1 µM
[3] = curve of first compound, second compound 0.316 µM
[4] = curve of first compound, second compound 1 µM
[5] = curve of first compound, second compound 3.16 µM
[6] = curve of first compound, second compound 10 µM
[7] = second compound 0.0316 µM, first compound 0.00316 µM
[8] = second compound 0.0316 µM, first compound 0.01 µM
[9] = second compound 0.0316 µM, first compound 0.0316 µM
[10] = second compound 0.0316 µM, first compound 0.1 µM
[11] = second compound 0.1 µM, first compound 0.00316 µM
[12] = second compound 0.1 µM, first compound 0.01 µM
[13] = second compound 0.1 µM, first compound 0.0316 µM
[14] = second compound 0.1 µM, first compound 0.1 µM
[15] = second compound 0.316 µM, first compound 0.00316 µM
[16] = second compound 0.316 µM, first compound 0.01 µM
[17] = second compound 0.316 µM, first compound 0.0316 µM
[18] = second compound 0.316 µM, first compound 0.1 µM
[19] = second compound 1 µM, first compound 0.00316 µM
[20] = second compound 1 µM, first compound 0.01 µM
[21] = second compound 1 µM, first compound 0.0316 µM
[22] = second compound 1 µM, first compound 0.1 µM
[23] = second compound 3.16 µM, first compound 0.00316 µM
[24] = second compound 3.16 µM, first compound 0.01 µM
[25] = second compound 3.16 µM, first compound 0.0316 µM
[26] = second compound 3.16 µM, first compound 0.1 µM
[27] = second compound 10 µM, first compound 0.00316 µM
[28] = second compound 10 µM, first compound 0.01 µM
[29] = second compound 10 µM, first compound 0.0316 µM
[30] = second compound 10 µM, first compound 0.1 µM
[31] = second compound 0.0316 µM, first compound 0.316 µM
[32] = second compound 0.0316 µM, first compound 1 µM
[33] = second compound 0.0316 µM, first compound 3.16 µM
[34] = second compound 0.0316 µM, first compound 10 µM
[35] = second compound 0.1 µM, first compound 0.316 µM
[36] = second compound 0.1 µM, first compound 1 µM
[37] = second compound 0.1 µM, first compound 3.16 µM
[38] = second compound 0.1 µM, first compound 10 µM
[39] = second compound 0.316 µM, first compound 0.316 µM
[40] = second compound 0.316 µM, first compound 1 µM
[41] = second compound 0.316 µM, first compound 3.16 µM
[42] = second compound 0.316 µM, first compound 10 µM
[43] = second compound 1 µM, first compound 0.316 µM
[44] = second compound 1 µM, first compound 1 µM
[45] = second compound 1 µM, first compound 3.16 µM
[46] = second compound 1 µM, first compound 10 µM
[47] = second compound 3.16 µM, first compound 0.316 µM
[48] = second compound 3.16 µM, first compound 1 µM
[49] = second compound 3.16 µM, first compound 3.16 µM
[50] = second compound 3.16 µM, first compound 10 µM
[51] = second compound 10 µM, first compound 0.316 µM
[52] = second compound 10 µM, first compound 1 µM
[53] = second compound 10 µM, first compound 3.16 µM
[54] = second compound 10 µM, first compound 10 µM
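Note: spheroids exposed to agents for 7 days before viability read.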
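Throughout, for viability, T/C: 100% = DMSO vehicle treated spheroids.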

IC50 [1]: > 0.1 µM | IC50 [2]: > 0.1 µM | IC50 [3]: > 0.1 µM | IC50 [4]: > 0.1 µM | IC50 [5]: > 0.1 µM | IC50 [6]: 0.0375 µM
Structure (SMILES): CC(C)n1nc(-c2ccc3oc(N)nc3c2)c2c(N)ncnc21 + Cc1nc(NC(=O)N2CCCC2C(N)=O)sc1-c1ccnc(C(C)(C)C(F)(F)F)c1
viability, T/C (second compound 0.0316 µM, first compound 0.000316 µM): 68.1% | viability, T/C (second compound 0.0316 µM, first compound 0.001 µM): 74% | viability, T/C [7]: 59.7% | viability, T/C [8]: 67.7% | viability, T/C [9]: 58.7% | viability, T/C [10]: 67.8% | viability, T/C (second compound 0.1 µM, first compound 0.000316 µM): 79.1% | viability, T/C (second compound 0.1 µM, first compound 0.001 µM): 64.5% | viability, T/C [11]: 65.4% | viability, T/C [12]: 62.5% | viability, T/C [13]: 74% | viability, T/C [14]: 75% | viability, T/C (second compound 0.316 µM, first compound 0.000316 µM): 86.9% | viability, T/C (second compound 0.316 µM, first compound 0.001 µM): 69% | viability, T/C [15]: 81.6% | viability, T/C [16]: 64.7% | viability, T/C [17]: 60.9% | viability, T/C [18]: 67.7% | viability, T/C (second compound 1 µM, first compound 0.000316 µM): 79.4% | viability, T/C (second compound 1 µM, first compound 0.001 µM): 61.1% | viability, T/C [19]: 61% | viability, T/C [20]: 70.5% | viability, T/C [21]: 67.1% | viability, T/C [22]: 63.6% | viability, T/C (second compound 3.16 µM, first compound 0.000316 µM): 72.2% | viability, T/C (second compound 3.16 µM, first compound 0.001 µM): 61.3% | viability, T/C [23]: 66.1% | viability, T/C [24]: 65.9% | viability, T/C [25]: 69.7% | viability, T/C [26]: 53.7% | viability, T/C (second compound 10 µM, first compound 0.000316 µM): 68.2% | viability, T/C (second compound 10 µM, first compound 0.001 µM): 74% | viability, T/C [27]: 65.8% | viability, T/C [28]: 61.5% | viability, T/C [29]: 51.8% | viability, T/C [30]: 41.1%

IC50 [1]: > 10 µM | IC50 [2]: > 10 µM | IC50 [3]: > 10 µM | IC50 [4]: > 10 µM | IC50 [5]: > 10 µM | IC50 [6]: > 10 µM
Structure (SMILES): Cn1nccc1Nc1nccc(-c2ccn(C(CO)c3ccc(Cl)c(F)c3)c(=O)c2)n1 (stereo not drawn) + CC(Nc1ncnc2nc[nH]c12)c1cc2cccc(Cl)c2c(=O)n1-c1ccccc1
viability, T/C [9]: 73.9% | viability, T/C [10]: 61.6% | viability, T/C [31]: 72.4% | viability, T/C [32]: 76.7% | viability, T/C [33]: 87.6% | viability, T/C [34]: 85.4% | viability, T/C [13]: 110% | viability, T/C [14]: 83.8% | viability, T/C [35]: 78% | viability, T/C [36]: 74.7% | viability, T/C [37]: 82.4% | viability, T/C [38]: 89.6% | viability, T/C [17]: 90.7% | viability, T/C [18]: 94% | viability, T/C [39]: 59.5% | viability, T/C [40]: 66.1% | viability, T/C [41]: 82.1% | viability, T/C [42]: 83.7% | viability, T/C [21]: 96% | viability, T/C [22]: 87.4% | viability, T/C [43]: 67.8% | viability, T/C [44]: 74.2% | viability, T/C [45]: 80.3% | viability, T/C [46]: 79.7% | viability, T/C [25]: 106% | viability, T/C [26]: 70.2% | viability, T/C [47]: 61.9% | viability, T/C [48]: 77.7% | viability, T/C [49]: 75.5% | viability, T/C [50]: 63.7% | viability, T/C [29]: 82.1% | viability, T/C [30]: 90.2% | viability, T/C [51]: 85.9% | viability, T/C [52]: 70.8% | viability, T/C [53]: 67.8% | viability, T/C [54]: 61%

IC50 [1]: > 10 µM | IC50 [2]: 8.61 µM | IC50 [3]: > 10 µM | IC50 [4]: 9.47 µM | IC50 [5]: > 10 µM | IC50 [6]: 6.82 µM
Structure (SMILES): CCCS(=O)(=O)Nc1ccc(F)c(C(=O)c2c[nH]c3ncc(-c4ccc(Cl)cc4)cc23)c1F + CC(Nc1ncnc2nc[nH]c12)c1cc2cccc(Cl)c2c(=O)n1-c1ccccc1
viability, T/C [9]: 90.2% | viability, T/C [10]: 74.8% | viability, T/C [31]: 92.9% | viability, T/C [32]: 84% | viability, T/C [33]: 133% | viability, T/C [34]: 66.6% | viability, T/C [13]: 108% | viability, T/C [14]: 80.1% | viability, T/C [35]: 90% | viability, T/C [36]: 74.8% | viability, T/C [37]: 128% | viability, T/C [38]: 43% | viability, T/C [17]: 113% | viability, T/C [18]: 85.1% | viability, T/C [39]: 72.8% | viability, T/C [40]: 111% | viability, T/C [41]: 130% | viability, T/C [42]: 65.5% | viability, T/C [21]: 83.5% | viability, T/C [22]: 65.2% | viability, T/C [43]: 81% | viability, T/C [44]: 103% | viability, T/C [45]: 125% | viability, T/C [46]: 47.8% | viability, T/C [25]: 110% | viability, T/C [26]: 88.1% | viability, T/C [47]: 70.1% | viability, T/C [48]: 77.3% | viability, T/C [49]: 109% | viability, T/C [50]: 52.9% | viability, T/C [29]: 112% | viability, T/C [30]: 95% | viability, T/C [51]: 80.3% | viability, T/C [52]: 79.9% | viability, T/C [53]: 83.4% | viability, T/C [54]: 35.2%

IC50 [1]: > 1 µM | IC50 [2]: > 1 µM | IC50 [3]: > 1 µM | IC50 [4]: > 1 µM | IC50 [5]: > 1 µM | IC50 [6]: > 1 µM
Structure (SMILES): CCN1CCN(Cc2ccc(Nc3ncc(F)c(-c4cc(F)c5nc(C)n(C(C)C)c5c4)n3)nc2)CC1 + Cc1nc(NC(=O)N2CCCC2C(N)=O)sc1-c1ccnc(C(C)(C)C(F)(F)F)c1
viability, T/C [7]: 95.9% | viability, T/C [8]: 92.4% | viability, T/C [9]: 87.3% | viability, T/C [10]: 72.8% | viability, T/C [31]: 75.5% | viability, T/C [32]: 102% | viability, T/C [11]: 85.8% | viability, T/C [12]: 81.7% | viability, T/C [13]: 67.9% | viability, T/C [14]: 82.8% | viability, T/C [35]: 87% | viability, T/C [36]: 92.8% | viability, T/C [15]: 91.4% | viability, T/C [16]: 79.2% | viability, T/C [17]: 63.6% | viability, T/C [18]: 76.6% | viability, T/C [39]: 92% | viability, T/C [40]: 88.7% | viability, T/C [19]: 63.2% | viability, T/C [20]: 77.3% | viability, T/C [21]: 76.5% | viability, T/C [22]: 80.2% | viability, T/C [43]: 86% | viability, T/C [44]: 95.2% | viability, T/C [23]: 72.2% | viability, T/C [24]: 93% | viability, T/C [25]: 78.7% | viability, T/C [26]: 68.6% | viability, T/C [47]: 79.4% | viability, T/C [48]: 82.4% | viability, T/C [27]: 63.8% | viability, T/C [28]: 66.1% | viability, T/C [29]: 70.7% | viability, T/C [30]: 53% | viability, T/C [51]: 65.2% | viability, T/C [52]: 74.9%

IC50 (curve of compound): > 10 µM
Structure (SMILES): C#Cc1c(F)ccc2cc(O)cc(-c3ncc4c(N5CC6CCC(C5)N6)nc(OCC56CCCN5CC(F)C6)nc4c3F)c12 (stereo not drawn)
viability, T/C (compound 0.0316 µM): 94.5% [middle of 4 runs] | viability, T/C (compound 0.316 µM): 97% [middle of 4 runs] | viability, T/C (compound 3.16 µM): 84.7% [middle of 4 runs] | viability, T/C (compound 10 µM): 86.3% [middle of 4 runs]
